From PubChem BioAssay (NCI)
Several values for one entry are separate records, joined by “and”; a condition that tells them apart may be missing. Identical values can stand only once.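 Dose response: 5 concentrations. Exposure: 48 h. Format: 96-well plates. Endpoint: linear interpolation; highest concentration if not reached. GI50 marks 50% less growth. TGI: concentration producing complete growth inhibition.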

Tests used:
Assay in all cases: inhibition of tumour cell growth, NCI panel, 48 h
HOP-62 NSCLC = tested on: HOP-62 NSCLC
HL-60(TB) leukemia = tested on: HL-60(TB) leukemia
RPMI-8226 leukemia = tested on: RPMI-8226 leukemia
HCC-2998 colon = tested on: HCC-2998 colon
OVCAR-5 ovarian = tested on: OVCAR-5 ovarian
SK-OV-3 ovarian = tested on: SK-OV-3 ovarian
SK-MEL-2 melanoma = tested on: SK-MEL-2 melanoma
RXF 393 renal = tested on: RXF 393 renal

SMILES	GI50 (HOP-62 NSCLC)	TGI (HOP-62 NSCLC)	GI50 (HL-60(TB) leukemia)	TGI (HL-60(TB) leukemia)	GI50 (RPMI-8226 leukemia)	TGI (RPMI-8226 leukemia)	GI50 (HCC-2998 colon)	TGI (HCC-2998 colon)	GI50 (OVCAR-5 ovarian)	TGI (OVCAR-5 ovarian)	GI50 (SK-OV-3 ovarian)	TGI (SK-OV-3 ovarian)	GI50 (SK-MEL-2 melanoma)	TGI (SK-MEL-2 melanoma)	GI50 (RXF 393 renal)	TGI (RXF 393 renal)
NNC(=S)N/N=C/c1ccccn1	1.44 µM	35.3 µM	1.74 µM	5.92 µM	2.44 µM	> 100 µM	3.12 µM	> 100 µM	3.68 µM	> 100 µM	2.89 µM	> 100 µM	2.86 µM	> 100 µM	2.5 µM	> 100 µM
O=C1NC(=N[C@@H]2C[C@H]2c2ccccc2)S/C1=C\c1ccc2ncccc2c1	1.67 µM	6.38 µM	0.876 µM	9.47 µM	1.28 µM	7.52 µM	1.93 µM	18.4 µM	4.33 µM	> 20.7 µM	1.06 µM	4.06 µM	4 µM	9.55 µM	1.12 µM	4.84 µM
CCOC(=O)c1c2c(n(Cc3ccccc3)c1C)-c1nc[nH]c1C(=O)C2=O	18.6 µM	33.2 µM	2.61 µM	10.3 µM	1.1 µM	10.7 µM					19.5 µM	33.6 µM	17.7 µM	32.2 µM	11.2 µM	23.2 µM
N#C/C(=C\c1ccc([N+](=O)[O-])cc1)n1nnc2cc(F)c(F)cc21	1.78 µM	4.11 µM	2.36 µM	5.78 µM	2.42 µM	6.67 µM	1.67 µM	3.36 µM	1.77 µM	3.41 µM	2.85 µM	11.4 µM	2.32 µM	5.58 µM	1.04 µM	2.39 µM
COc1cc2cc(Oc3ccc(NC(=O)Nc4ccc(F)c(C(F)(F)F)c4)cc3)c(C)nc2cc1OCCN1CCOCC1	3.99 µM	20.5 µM	2.38 µM	6.14 µM	1.12 µM	4.25 µM	5.34 µM	16.7 µM	5.11 µM	21.7 µM	3.76 µM	26.7 µM	2.38 µM	7.58 µM	1.78 µM	3.94 µM
COC(=O)Nc1nc2ccc(C(=O)C3CC3)cc2[nH]1	0.523 µM	> 42.2 µM	0.448 µM	> 100 µM	0.219 µM	0.696 µM	0.771 µM		3.25 µM	> 56.1 µM	0.412 µM	> 62 µM	3.31 µM	> 70.1 µM	0.345 µM	
O=C(NCCNc1nccc(-c2c(-c3ccc(F)cc3)nc3sccn23)n1)Nc1cccc(C(F)(F)F)c1	2.9 µM	10.1 µM	11.5 µM	> 100 µM	3.52 µM	34 µM	5.21 µM	17.7 µM	18.5 µM	54.4 µM	2.67 µM	11.9 µM	3.02 µM	8.8 µM	1.99 µM	6.05 µM
COC(=O)CC12CC(NC(=O)c3csc([C@@H](C[C@H](C(C)C)N(C)C(=O)[C@@H](NC(=O)[C@H]4CCCCN4C)C(C)C)OC(C)=O)n3)(C1)C2	0.00498 µM and 0.00838 µM	> 33.3 µM	0.00282 µM and 0.00685 µM	0.0111 µM and 0.0181 µM	0.00351 µM and 0.0129 µM	> 33.3 µM	0.0303 µM and 0.0148 µM	> 33.3 µM	0.0049 µM and 0.0165 µM	> 33.3 µM	0.00439 µM and 0.0105 µM	> 33.3 µM	0.00441 µM and 0.00955 µM	> 33.3 µM		
COc1ncnn2ccc(-c3cnc4nc(C)n(Cc5nnc(C(C)F)o5)c4c3)c12 (stereo not drawn)			0.367 µM		0.201 µM	> 45.6 µM	0.308 µM	2.71 µM	0.343 µM		0.0716 µM	> 100 µM	0.0748 µM	0.236 µM	0.247 µM	0.665 µM
O=C(O)c1cc(C(=O)C(=O)c2cc(C(=O)O)c(O)c3ccccc23)c2ccccc2c1O		> 100 µM				> 100 µM		> 100 µM		> 100 µM		> 100 µM		> 100 µM		> 100 µM
CSc1nc(SC)c2c(C)cn(Cc3ccccc3)c2n1		> 100 µM		> 100 µM		> 100 µM		> 100 µM		> 100 µM		> 100 µM		> 100 µM		
Cc1cn2c(/C=N/NC3=NCCN3)c(-c3ccc(Cl)c([N+](=O)[O-])c3)nc2s1	1.71 µM	7.17 µM			1.27 µM	> 50 µM	2.12 µM	> 50 µM	6.75 µM	17.2 µM	1.53 µM	3.68 µM	0.645 µM	1.81 µM		
CCCC(c1cc(C(C)(C)C)c(O)cc1C)c1cc(C(C)(C)C)c(O)cc1C		8 µM		4.94 µM		5.77 µM		3.3 µM		4.54 µM		12.4 µM		7.22 µM		4.56 µM
Nc1nc(N)c2cc(Sc3ccc(Cl)cc3)ccc2n1	1.49 µM	14.9 µM	0.6 µM	2.47 µM	1.95 µM	4.99 µM	1.08 µM	2.43 µM	2.05 µM	17.5 µM			2.23 µM	5.53 µM	1.03 µM	7.78 µM
COc1cccc(Nc2ncnn3ccc(CN4CC[C@@H](N)[C@H](O)C4)c23)c1	4.22 µM and 0.506 µM	27.3 µM and > 10 µM	20.3 µM and > 4.71 µM	41.1 µM and > 8.1 µM	20.9 µM and > 5.39 µM	68 µM and > 10 µM	15.6 µM and > 3.65 µM	36.1 µM and > 9.59 µM	0.467 µM and 0.357 µM	32.5 µM and > 10 µM	0.0386 µM and 0.0322 µM	0.772 µM and 0.129 µM	19.9 µM and > 4.7 µM	39.8 µM and > 7.19 µM	0.601 µM and 0.405 µM	5.11 µM and 2.41 µM
NS(=O)(=O)c1ccc(N=Nc2c(O)[nH]c3cccc(CCc4ccncc4)c23)cc1	> 25 µM	> 25 µM	> 25 µM	> 25 µM	> 25 µM	> 25 µM	> 25 µM	> 25 µM	> 25 µM	> 25 µM	> 25 µM	> 25 µM	> 25 µM	> 25 µM	> 25 µM	> 25 µM
Nc1n[nH]c2ccc([C@H]3[C@@H]4C5CCC(C5)[C@@H]4c4c(ccc5[nH]ncc45)N3S(=O)(=O)C3CC3)cc12 (stereo partly drawn)	0.335 µM	20.7 µM	0.12 µM	0.996 µM	0.176 µM	7.46 µM	0.199 µM	8.42 µM	0.272 µM	26.1 µM	5.59 µM	38.8 µM	0.343 µM	14.5 µM		
Cc1cc(S(=O)(=O)Nc2n[nH]c(-c3ccc(Cl)cc3)c2C#N)c(S)cc1Cl	> 100 µM	> 100 µM	> 100 µM	> 100 µM	> 100 µM	> 100 µM	95.5 µM	> 100 µM	> 100 µM	> 100 µM	> 100 µM	> 100 µM	> 100 µM	> 100 µM	> 100 µM	> 100 µM

SMILES	GI50 (HOP-62 NSCLC)	TGI (HOP-62 NSCLC)	GI50 (HL-60(TB) leukemia)	TGI (HL-60(TB) leukemia)	GI50 (RPMI-8226 leukemia)	TGI (RPMI-8226 leukemia)	GI50 (HCC-2998 colon)	TGI (HCC-2998 colon)	GI50 (OVCAR-5 ovarian)	TGI (OVCAR-5 ovarian)	GI50 (SK-OV-3 ovarian)	TGI (SK-OV-3 ovarian)	GI50 (SK-MEL-2 melanoma)	TGI (SK-MEL-2 melanoma)	GI50 (RXF 393 renal)	TGI (RXF 393 renal)
OC1CCC(COC(c2ccccc2)(c2ccccc2)c2ccccc2)O1 (stereo not drawn)		33.9 µM		39.7 µM		40.7 µM		35.6 µM		45.2 µM		36.6 µM		42.6 µM		
O=C(NC(=S)Nc1ccc(-c2nc3ccccc3[nH]2)cc1)c1ccc2ccccc2c1	2.41 µM	5.58 µM	6.31 µM	26 µM	2.62 µM	9.29 µM	7.15 µM	> 100 µM	3.75 µM	16.6 µM	12.8 µM	37 µM	18.3 µM	48.8 µM	1.92 µM	3.77 µM
CCOC(=O)Nc1nc(-c2ccccc2)c(C)s1		> 100 µM		90.5 µM		> 100 µM		> 100 µM		> 100 µM		> 100 µM		> 100 µM		> 100 µM
Cc1cccc2c1NC(=O)[C@@H](NC(=O)[C@H](CCC(F)(F)F)[C@H](CCC(F)(F)F)C(N)=O)N=C2c1cccc(F)c1	25.8 µM	92.1 µM	> 100 µM	> 100 µM	> 100 µM	> 100 µM	60 µM	> 100 µM	86.4 µM	> 100 µM	28.7 µM	91.3 µM	41.5 µM	> 100 µM	13.5 µM	40.4 µM
CCOC(=O)Nc1ccc2c3c(cccc13)-c1ccccc1-2	5.27 µM	> 100 µM			5.51 µM	> 100 µM	9.56 µM	> 100 µM	> 100 µM	> 100 µM	9.18 µM	> 100 µM	> 100 µM	> 100 µM	6.92 µM	> 100 µM
CC12OC(C(=O)C13CC3)C1C(=O)c3cccc(O)c3C(=O)C12 (stereo not drawn)	7.21 µM	19.7 µM		0.539 µM	2.22 µM	> 100 µM	18.5 µM	46.7 µM	24.5 µM	> 66.3 µM	22.9 µM	> 75.3 µM	47.3 µM	> 100 µM	1.43 µM	9.3 µM
Nc1cc2c(c3ccccc13)C(CCl)CN2C(=O)c1cc2cc(NC(=O)c3cc4ccccc4o3)ccc2[nH]1 (stereo not drawn)		< 0.11 µM	> 0.11 µM	< 0.11 µM				0.675 µM	> 0.11 µM	138 µM		5.5 µM	> 0.11 µM	0.0109 µM and < 0.11 µM		
CO[C@@H]1[C@H](N(C)C(=O)c2ccccc2)C[C@@H]2O[C@]1(C)n1c3ccccc3c3c4c(c5c6ccccc6n2c5c31)C(=O)NC4=O	0.382 µM	> 100 µM	> 100 µM	> 100 µM	> 100 µM	> 100 µM	> 100 µM	> 100 µM			1.67 µM	> 100 µM				
CN(CCNc1ccc(C(=N)N)cc1)c1ccc(C(=N)N)cc1	50 µM	> 100 µM	49.4 µM	> 100 µM			97.3 µM	> 100 µM	> 100 µM	> 100 µM	34.5 µM	> 100 µM	18 µM	> 100 µM		
Cc1cc(C)c2c(=O)cc(-c3ccc(F)cc3)[nH]c2n1		> 100 µM	15.5 µM	37.4 µM		> 100 µM		> 100 µM		> 100 µM		> 100 µM		> 100 µM		
Clc1ccc(Nc2ncnc3ccccc23)cc1	> 100 µM	> 100 µM	36.7 µM	> 100 µM			> 100 µM	> 100 µM	> 100 µM	> 100 µM	91.1 µM	> 100 µM			47.7 µM	> 100 µM
Fc1ccc(-c2nn3c(COc4ccccc4Cl)nnc3s2)cc1Oc1ccccc1	19.4 µM	40.1 µM			51.1 µM	> 100 µM	28.6 µM	77.4 µM	33.2 µM	92.7 µM					> 100 µM	> 100 µM
O=P1(O)c2ccccc2CSCc2ccccc21		> 100 µM		> 100 µM				> 100 µM		> 100 µM		> 100 µM		> 100 µM		> 100 µM
CCOC(=O)Cc1csc(Nc2nc(O)c(C3=c4ccccc4=NC3=O)s2)n1	20.6 µM	39.5 µM			20.9 µM	53.2 µM	29.8 µM	> 100 µM	43.6 µM	> 100 µM	31.1 µM	67.6 µM	25.7 µM	> 100 µM	41.3 µM	> 100 µM
CCOC(=O)c1cc2c(OC)cc(OC)cc2oc1=O		> 100 µM		> 100 µM		> 100 µM		> 100 µM		> 100 µM				> 100 µM		> 100 µM
Cc1ccc([I+]c2ccc(C)cc2)cc1					1.16 µM	50 µM	6.44 µM	> 100 µM	39.2 µM	> 100 µM	21.8 µM	> 100 µM	14.1 µM	94.4 µM	36.6 µM	> 100 µM
O=C(O)c1ccc(NCn2nc(-c3ccccc3O)oc2=S)cc1O	> 100 µM	> 100 µM	> 100 µM	> 100 µM			> 100 µM	> 100 µM	> 100 µM	> 100 µM			46.8 µM	> 100 µM	> 100 µM	> 100 µM
COc1ccc(C(=O)O[C@@H]2CCN3CC[C@H](C)[C@H]23)cc1		> 100 µM		> 100 µM		> 100 µM				> 100 µM		> 100 µM		> 100 µM		> 100 µM
